In patent US11512097B2, “Heterocyclic compounds as Delta-5 desaturase inhibitors and methods of use” (Amgen Inc., priority 2019, dated 2022) one finds IC50 data, which are given here for one compound.

Broadly, the IC50 is the concentration that inhibits the measured activity by half. High values mean lower potency, low ones higher potency.

The target of the test is T1, Delta-5-Desaturase (D5D), membrane preparations of D5D-overexpressing HEK293 6E cells (Homo sapiens, UniProt O60427).
T1 construct: expressed in transfected cells; host or cells: HEK293 6E cells (membrane preparation)
T1 sequence (O60427 whole entry, species assumed): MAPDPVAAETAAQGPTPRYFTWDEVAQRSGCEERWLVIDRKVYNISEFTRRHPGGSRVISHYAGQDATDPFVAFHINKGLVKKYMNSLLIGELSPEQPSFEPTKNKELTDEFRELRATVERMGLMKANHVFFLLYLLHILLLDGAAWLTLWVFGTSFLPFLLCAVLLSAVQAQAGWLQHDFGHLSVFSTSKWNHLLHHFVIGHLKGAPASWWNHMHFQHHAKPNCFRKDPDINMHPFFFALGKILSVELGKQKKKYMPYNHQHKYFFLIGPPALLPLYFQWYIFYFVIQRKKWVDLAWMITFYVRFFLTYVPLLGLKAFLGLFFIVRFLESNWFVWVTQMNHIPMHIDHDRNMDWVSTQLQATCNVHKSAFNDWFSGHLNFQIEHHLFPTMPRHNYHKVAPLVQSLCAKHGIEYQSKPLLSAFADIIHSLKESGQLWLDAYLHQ
Put plainly: In vitro measurement of Delta-5-Desaturase inhibitory activity using DGLA-CoA and Arachidonyl-CoA mass spectrometric assays. It is filed as biochemical. The note with it: D5D membrane 10 μg/mL, one-hour incubation, average of at least two independent runs. In short, it runs like this: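 Membranes from D5D-overexpressing HEK293 6E cells (10 μg/mL final) in pH 7.5 Tris buffer with MgCl2, octyl glucoside and TCEP were run with substrate solution holding 0.01 mM DGLA, NADH, ATP and CoA for 1 h at ambient temperature. Acetonitrile quench; DGLA-CoA and arachidonyl-CoA measured by RapidFire MRM-MS; 4-parameter IC50, ≥2 runs averaged.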

Take `Cc1nn2c(=O)c(-c3cnn(CC(F)(F)C(F)(F)F)c3)c(C(F)(F)F)nc2s1` [Example 2, 2-methyl-6-[1-(2,2,3,3,3-pentafluoropropyl)-1H-pyrazol-4-yl]-7-(trifluoromethyl)-5H-[1,3,4]thiadiazolo[3,2-a]pyrimidin-5-one]: the IC50 amounted to 19.6 nM.
